Source: patent publication US4634783A, “Novel amidine compound” (Torii & Co. Ltd., priority 1983, dated 1987)
Read-outs that look alike come from different tables or passages of the source.

Assays:
[1] = target: T1, Trypsin (Bos taurus, UniProt P00760); assay: anti-trypsin activity (hydrolysis of TAME); type: biochemical; details: read-out: ID50 Trypsin
T1 sequence (P00760 24-246): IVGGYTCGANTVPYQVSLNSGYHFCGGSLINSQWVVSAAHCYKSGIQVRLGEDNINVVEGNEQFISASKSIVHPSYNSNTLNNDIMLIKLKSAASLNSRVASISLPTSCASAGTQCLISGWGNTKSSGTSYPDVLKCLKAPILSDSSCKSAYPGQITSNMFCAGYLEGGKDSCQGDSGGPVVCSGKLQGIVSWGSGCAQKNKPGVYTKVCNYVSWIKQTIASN
Procedure: (§1) The anti-trypsin, anti-plasmin, anti-kallikrein and anti-thrombin activities were determined according to the method of Muramatsu et al. [M. Muramatsu, T. Onishi, S. Makino, Y. Hayashi and S. Fujii, J. of Biochem., 58, 214 (1965)]. […] The compound No. corresponds to the compound number shown in Examples.

[2] = target: Plasmin (Homo sapiens, UniProt P00747); assay: anti-plasmin activity (hydrolysis of TAME); type: biochemical; details: for IC50: TAME hydrolysis, read-out: ID50 Plasmin; for inhibition at 10 µM: at 1×10^-5 M, figure in parentheses, read-out: percentage inhibition Plasmin
Procedure: as §1

[3] = system: Kallikrein; assay: anti-kallikrein activity (hydrolysis of TAME); type: biochemical; details: for IC50: TAME hydrolysis, read-out: ID50 Kallikrein; for percentage inhibition Kallikrein: at 1×10^-5 M, figure in parentheses
Procedure: as §1

[4] = target: Thrombin (Homo sapiens, UniProt P00734); assay: biochemical; details: for IC50: read-out: ID50 Thrombin; for inhibition at 10 µM: at 1×10^-5 M, figure in parentheses, read-out: percentage inhibition Thrombin
[5] = target: T2, C1r (Homo sapiens, UniProt P00736); assay: anti-C1 esterase (C1r) activity (hydrolysis of AAME); type: biochemical; details: for IC50: AAME hydrolysis, read-out: ID50 C1r; for inhibition at 10 µM: at 1×10^-5 M, figure in parentheses, read-out: percent inhibition C1r
T2 sequence (P00736 464-705 limits assumed): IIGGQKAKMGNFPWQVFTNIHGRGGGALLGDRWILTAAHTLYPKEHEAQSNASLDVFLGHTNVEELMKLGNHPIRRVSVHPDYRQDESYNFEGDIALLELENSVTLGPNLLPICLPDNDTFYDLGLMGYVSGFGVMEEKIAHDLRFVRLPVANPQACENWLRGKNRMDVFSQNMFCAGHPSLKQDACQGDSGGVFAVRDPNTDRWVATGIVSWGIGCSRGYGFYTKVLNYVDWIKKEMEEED
T2 sequence (P00736 18-463 limits assumed): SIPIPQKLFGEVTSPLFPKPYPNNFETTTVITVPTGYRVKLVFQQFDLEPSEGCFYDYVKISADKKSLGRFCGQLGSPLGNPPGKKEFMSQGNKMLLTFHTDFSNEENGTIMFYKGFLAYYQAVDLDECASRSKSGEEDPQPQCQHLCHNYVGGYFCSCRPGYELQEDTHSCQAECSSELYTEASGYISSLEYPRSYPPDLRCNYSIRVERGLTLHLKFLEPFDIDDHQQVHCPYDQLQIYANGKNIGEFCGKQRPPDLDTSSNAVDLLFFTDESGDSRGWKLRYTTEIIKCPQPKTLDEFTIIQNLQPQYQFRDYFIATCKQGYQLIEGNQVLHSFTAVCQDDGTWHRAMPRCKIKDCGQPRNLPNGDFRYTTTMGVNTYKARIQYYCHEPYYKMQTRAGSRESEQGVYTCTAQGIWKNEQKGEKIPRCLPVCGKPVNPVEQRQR
Procedure: (§2) The anti-C1 esterase (C1r, C1s) activity was determined according to the method of Okamura et al. [K. Okamura, M. Muramatsu and B. Fujii, Biochem. Biophys. Acta, 295, 252-257 (1973)]. The inhibition of complement mediated hemolysis was determined according to the method of Baker et al. [B. R. Baker and E. H. Erickson, J. Med. Chem., 12, 408-414 (1969)]. The figures in Table 2 have the following meanings:
C1r: Molar concentration of the test compound which inhibits 50% of the ability of C1r to hydrolyse AAME (acetylarginin methyl ester) (ID50).

[6] = target: T3, C1s (Homo sapiens, UniProt P09871); assay: anti-C1 esterase (C1s) activity (hydrolysis of ATEE); type: biochemical; details: for IC50: ATEE hydrolysis, read-out: ID50 C1s; for inhibition at 10 µM: at 1×10^-5 M, figure in parentheses, read-out: percent inhibition C1s
T3 sequence (P09871 438-688 limits assumed): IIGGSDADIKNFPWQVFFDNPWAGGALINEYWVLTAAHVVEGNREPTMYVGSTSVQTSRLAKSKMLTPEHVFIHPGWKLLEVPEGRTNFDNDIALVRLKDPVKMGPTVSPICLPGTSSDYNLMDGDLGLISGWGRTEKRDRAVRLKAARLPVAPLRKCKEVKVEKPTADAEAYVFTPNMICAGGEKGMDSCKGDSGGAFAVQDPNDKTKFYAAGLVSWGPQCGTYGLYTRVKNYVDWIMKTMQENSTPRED
T3 sequence (P09871 16-437 limits assumed): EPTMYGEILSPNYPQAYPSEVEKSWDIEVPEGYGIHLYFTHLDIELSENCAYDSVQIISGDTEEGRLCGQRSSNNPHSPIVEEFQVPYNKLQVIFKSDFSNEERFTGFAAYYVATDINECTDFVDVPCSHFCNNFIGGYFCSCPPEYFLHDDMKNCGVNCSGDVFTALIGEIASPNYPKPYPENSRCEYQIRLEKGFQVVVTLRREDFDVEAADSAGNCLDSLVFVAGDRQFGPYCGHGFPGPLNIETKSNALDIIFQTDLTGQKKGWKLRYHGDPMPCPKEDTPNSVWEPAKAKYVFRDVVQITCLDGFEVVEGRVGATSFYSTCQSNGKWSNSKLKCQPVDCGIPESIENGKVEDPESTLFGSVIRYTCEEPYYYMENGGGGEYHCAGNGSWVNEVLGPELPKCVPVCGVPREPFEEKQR
Procedure: as §2
C1s: Molar concentration of the test compound which inhibits 50% of the ability of C1s to hydrolyse ATEE (acetyltyrosin ethyl ester) (ID50).

[7] = system: complement mediated hemolysis; assay: inhibition of complement mediated hemolysis; type: cell-based
Procedure: The complement mediated hemolysis is widely used as a means to determine the titration of complement. The principle of this method is based on the fact that hemolysis is caused by the activation of complement, when the latter is added to a complex (immune complex) of erythrocytes and the antibody thereof. The degree of hemolysis varies in proportion to the amount of complement added. Therefore, when a known amount of complement admixed with a C1 esterase inhibitor is used, the hemolysis must be suppressed in proportion to the inhibitory activity.
as §2
Inhibition of complement mediated hemolysis (%): The inhibitory activity is shown in terms of percent inhibition of the compound at varied concentrations: […]

[8] = system: Forssman shock; assay: Forssman shock; type: in vivo; details: test compound 3 mg/kg before hemolysin i.v.; male Hartlay guinea pig; control death at 278, 318, 296 sec.
Description: Quite different from other animals, guinea pig has on the surface of its organs a specific antigen called Forssman antigen which specifically reacts with the antibody of sheep erythrocyte. Forssman shock is based on the above principle and is a shock caused by the administration of antibody of sheep erythrocyte to a guinea pig. The Forssman shock was investigated in detail by many researches and it was definitely shown that this shock is a model case where the complement plays the principal part and that the shock is associated with a classical pathway in which the complement system is activated progressively starting from C1. Since the participation of complement in autoimmune diseases has been established, the Forssman shock can be said to be a useful means for testing a drug for autoimmune diseases. A drug effective for the treatment of Forssman shock is useful as a drug of autoimmune diseases.
The experiment was performed according to the method of I. G. Offerness et al. [Biochem. Pharmacol., 27 (14), 1873-1878 (1978)]. Male Hartlay guinea pig of about 300 g in body weight was used. Each guinea pig of the control group was administered intravenously with hemolysin (minimum dose to cause the shock) (commercial hemolysin, 5,000 U as assayed by the method of Ogata) and the time elapsed until death was observed. […]

[9] = Toxicity: median lethal dose (LD50); details: in vivo, mouse

Sequence of Plasmin (P00747 581-810 limits assumed, species assumed): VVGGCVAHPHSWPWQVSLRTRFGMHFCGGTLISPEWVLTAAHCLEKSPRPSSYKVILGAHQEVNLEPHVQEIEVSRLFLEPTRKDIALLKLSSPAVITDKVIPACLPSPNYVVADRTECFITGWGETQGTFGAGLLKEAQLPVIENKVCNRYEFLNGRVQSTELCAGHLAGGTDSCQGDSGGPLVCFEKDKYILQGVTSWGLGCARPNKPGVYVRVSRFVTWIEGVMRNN
Sequence of Plasmin (P00747 97-580 limits assumed, species assumed): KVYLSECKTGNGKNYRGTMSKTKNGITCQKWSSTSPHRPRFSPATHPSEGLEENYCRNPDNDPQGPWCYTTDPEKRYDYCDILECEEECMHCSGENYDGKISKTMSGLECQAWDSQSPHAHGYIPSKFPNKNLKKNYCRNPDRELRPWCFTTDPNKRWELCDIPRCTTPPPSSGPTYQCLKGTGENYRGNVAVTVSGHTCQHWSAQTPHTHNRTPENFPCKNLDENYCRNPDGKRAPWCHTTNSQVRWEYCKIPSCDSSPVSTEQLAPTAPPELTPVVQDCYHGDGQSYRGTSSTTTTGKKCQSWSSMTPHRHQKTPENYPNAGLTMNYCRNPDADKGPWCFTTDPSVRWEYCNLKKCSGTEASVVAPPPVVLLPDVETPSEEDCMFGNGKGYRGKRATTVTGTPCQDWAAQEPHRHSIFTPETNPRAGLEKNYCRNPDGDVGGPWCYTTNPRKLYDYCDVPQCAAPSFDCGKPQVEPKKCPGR

| SMILES | IC50 [1] | IC50 [2] | IC50 [3] | IC50 ([4]; TAME hydrolysis) | IC50 [5] | IC50 [6] | inhibition at 10 µM [6] | IC50 [4] | inhibition at 10 µM [2] | inhibition at 10 µM [4] | inhibition at 10 µM [5] | Inhibition of complement mediated hemolysis ([7]; 1 × 10^-4) | Inhibition of complement mediated hemolysis ([7]; 1 × 10^-5) | Inhibition of complement mediated hemolysis ([7]; 1 × 10^-6) | Inhibition of complement mediated hemolysis ([7]; 1 × 10^-7) | time elapsed until death (survival) in Forssman shock [8] | LD50 ([9]; ip, I.P.) | LD50 ([9]; po, P.O.) | percentage inhibition Kallikrein [3] |
| --- | --- | --- | --- | --- | --- | --- | --- | --- | --- | --- | --- | --- | --- | --- | --- | --- | --- | --- | --- |
| COc1ccc(C(=O)Oc2ccc3cc(C(=N)N)ccc3c2)o1 [Compound No. 1, 6-amidino-2-naphthyl 5-methoxy-furan-2-carboxylate] | 10 nM | 400 nM | 300 nM | 200 nM | 60 nM | 200 nM |  |  |  |  |  | 100% | 100% | 98% | 99% | Survival | 200 mg/kg | 2500 mg/kg |  |
| N=C(N)c1ccc2cc(OC(=O)c3cc4ccccc4o3)ccc2c1 [compound 16] | 2000 nM | 3000 nM |  | 7000 nM | 4000 nM |  | < 10% |  |  |  |  | 100% | 99% | 99% | 98% |  |  |  | NE (the percentage inhibition is less than 10%) |
| COc1ccc2oc(C(=O)Oc3ccc4cc(C(=N)N)ccc4c3)cc2c1 [compound 17] | 3000 nM | 3000 nM |  | 2000 nM | 4000 nM | 6000 nM |  |  |  |  |  | 100% | 100% | 95% | 90% |  |  |  | NE (the percentage inhibition is less than 10%) |
| N=C(N)c1ccc2cc(OC(=O)c3ccc[nH]3)ccc2c1 [compound 28] | 6000 nM |  |  |  |  | 300 nM |  |  | < 10% | < 10% | 31% | 88% | 55% | 28% | NE (the percentage inhibition is less than 10%) |  |  |  | NE (the percentage inhibition is less than 10%) |
| N=C(N)c1ccc2cc(OC(=O)c3ccccn3)ccc2c1 [compound 45] | 5000 nM | 7000 nM |  | 4000 nM |  |  | 20% |  |  |  | 18% | 100% | 98% | 75% | 46% |  |  |  | NE (the percentage inhibition is less than 10%) |

Continued, in another order:

| IC50 [1] | IC50 [2] | IC50 [3] | IC50 ([4]; TAME hydrolysis) | IC50 [5] | IC50 [6] | inhibition at 10 µM [6] | IC50 [4] | inhibition at 10 µM [2] | inhibition at 10 µM [4] | inhibition at 10 µM [5] | SMILES | Inhibition of complement mediated hemolysis ([7]; 1 × 10^-4) | Inhibition of complement mediated hemolysis ([7]; 1 × 10^-5) | Inhibition of complement mediated hemolysis ([7]; 1 × 10^-6) | Inhibition of complement mediated hemolysis ([7]; 1 × 10^-7) | time elapsed until death (survival) in Forssman shock [8] | LD50 ([9]; ip, I.P.) | LD50 ([9]; po, P.O.) | percentage inhibition Kallikrein [3] |
| --- | --- | --- | --- | --- | --- | --- | --- | --- | --- | --- | --- | --- | --- | --- | --- | --- | --- | --- | --- |
| 1000 nM | 300 nM | 5000 nM | 7000 nM | 3000 nM | 400 nM |  |  |  |  |  | N=C(N)c1ccc2cc(OC(=O)C=Cc3ccco3)ccc2c1 [compound 14] | 98% | 94% | 72% | 20% |  |  |  |  |
| 200 nM | 300 nM | 2000 nM | 200 nM | 70 nM | 300 nM |  |  |  |  |  | N=C(N)c1ccc2cc(OC(=O)c3cccs3)ccc2c1 [compound 22] | 100% | 96% | 58% | 34% |  |  |  |  |
| < 10 nM | 300 nM | 2000 nM |  | 700 nM | 400 nM |  | 3000 nM |  |  |  | Cc1ccc(C(=O)Oc2ccc3cc(C(=N)N)ccc3c2)s1 [compound 23] | 100% | 99% | 95% | 91% |  |  |  |  |
| 800 nM |  |  |  |  |  | 28% |  | < 10% | 13% | 30% | N=C(N)c1ccc2cc(OC(=O)c3ccc([N+](=O)[O-])o3)ccc2c1 [compound 65, 6-amidino-2-naphthyl 5-nitrofuran-2-carboxylate] | 100% | 100% | 89% | 80% |  |  |  | NE (the percentage inhibition is less than 10%) |
